Reference: patent US9282743B2, “Chemical compounds” (Syngenta Participations AG, priority 2011, dated 2016)

What was measured:
Type in all cases: in vivo
[1] = tested on: Echinochloa crus-galli (ECHCG); test: Example B6: post application on weeds, ECHCG; conditions: 312 h, after 13 days, 100 = total damage, 0 = no damage, read-out: ECHCG damage to plant
Method: (§1) Lolium perenne (LOLPE), Alopecurus myosuroides (ALOMY), Echinochloa crus-galli (ECHCG) and Avena fatua (AVEFA). Activity Against Weeds Seeds of a variety of test species were sown in standard soil in pots. After cultivation for 8 days under controlled conditions in a glasshouse (at 24/16° C., day/night; 14 hours light; 65% humidity), the plants were sprayed with an aqueous spray solution derived from the formulation of the technical active ingredient in acetone/water (50:50) solution containing 0.5% Tween 20 (polyoxyethelyene sorbitan monolaurate, CAS RN 9005-64-5). The test plants were then grown in a glasshouse under controlled conditions in a glasshouse (at 24/16° C., day/night; 14 hours light; 65% humidity) and watered twice daily. After 13 days, the test was evaluated (100=total damage to plant; 0=no damage to plant).

Avena fatua (AVEFA) [2] = test: Example B6: post application on weeds, AVEFA; conditions: 312 h, after 13 days, 100 = total damage, 0 = no damage, read-out: AVEFA damage to plant
Method: as §1

Winter wheat (TRZAW) = test: Example B8: post application on wheat, with and without safener cloquintocet-mexyl; conditions: after 13 days, 100 = total damage, 0 = no damage
Method: Application with Safener (Cloquintocet-Mexyl) Winter wheat seeds with a seed treatment of cloquintocet-mexyl applied at a rate of 0.5 g/kg seeds were sown in standard soil in pots. After cultivation for 8 days under controlled conditions in a glasshouse (at 24/16° C., day/night; 14 hours light; 65% humidity), the plants were sprayed with an aqueous spray solution derived from the formulation of the technical active ingredient in acetone/water (50:50) solution containing 0.5% Tween 20 (polyoxyethelyene sorbitan monolaurate, CAS RN 9005-64-5). The test plants were then grown in a glasshouse under controlled conditions in a glasshouse (at 24/16° C., day/night; 14 hours light; 65% humidity) and watered twice daily. After 13 days, the test was evaluated (100=total damage to plant; 0=no damage to plant).

Avena fatua (AVEFA) [3] = test: Example B7: pre application on weeds, AVEFA; conditions: 312 h, pre-emergence spray one day after sowing, evaluated after 13 days, read-out: Pre application on weeds, AVEFA (100=total damage to plant; 0=no damage to plant)
Method: as §1, with “one day” for “8 days”

[4] = tested on: Alopecurus myosuroides (ALOMY); test: Example B6: post application on weeds, ALOMY; conditions: 312 h, after 13 days, 100 = total damage, 0 = no damage, read-out: ALOMY damage to plant
Method: as §1

[5] = tested on: Alopecurus myosuroides (ALOMY); test: Example B7: pre application on weeds, ALOMY; conditions: 312 h, pre-emergence spray one day after sowing, evaluated after 13 days, read-out: Pre application on weeds, ALOMY (100=total damage to plant; 0=no damage to plant)
Method: as §1, with “one day” for “8 days”

Lolium perenne (LOLPE) [6] = test: Example B6: post application on weeds, LOLPE; conditions: 312 h, after 13 days, 100 = total damage, 0 = no damage, read-out: LOLPE damage to plant
Method: as §1

[7] = tested on: Echinochloa crus-galli (ECHCG); test: Example B7: pre application on weeds, ECHCG; conditions: 312 h, pre-emergence spray one day after sowing, evaluated after 13 days, read-out: Pre application on weeds, ECHCG (100=total damage to plant; 0=no damage to plant)
Method: as §1, with “one day” for “8 days”

Lolium perenne (LOLPE) [8] = test: Example B7: pre application on weeds, LOLPE; conditions: 312 h, pre-emergence spray one day after sowing, evaluated after 13 days, read-out: Pre application on weeds, LOLPE (100=total damage to plant; 0=no damage to plant)
Method: as §1, with “one day” for “8 days”

[9] = 250 g/ha + 0.5 g/kg seeds cloquintocet-mexyl
[10] = 62.5 g/ha + 0.5 g/kg seeds cloquintocet-mexyl

SMILES	pest or weed control at 250 g/ha [1] [%]	pest or weed control at 250 g/ha (Avena fatua (AVEFA) [2]) [%]	TRZAW damage to plant (Winter wheat (TRZAW); [9])	TRZAW damage to plant (Winter wheat (TRZAW); 250 g/ha, without safener)	pest or weed control at 250 g/ha (Avena fatua (AVEFA) [3]) [%]	pest or weed control at 250 g/ha [4] [%]	pest or weed control at 250 g/ha [5] [%]	pest or weed control at 250 g/ha (Lolium perenne (LOLPE) [6]) [%]	pest or weed control at 250 g/ha [7] [%]	pest or weed control at 250 g/ha (Lolium perenne (LOLPE) [8]) [%]	TRZAW damage to plant (Winter wheat (TRZAW); [10])	TRZAW damage to plant (Winter wheat (TRZAW); 62.5 g/ha, without safener)
CON1CCn2c(OC(=O)C(C)(C)C)c(-c3c(C)cc(C)cc3C)c(=O)n2CC1 [Compound P1.1, 2,2-Dimethyl-propionic acid 3-methoxy-9-oxo-8-(2,4,6-trimethyl-phenyl)-2,3,4,5-tetrahydro-1H,9H-pyrazolo[1,2-a][1,2,5]triazepin-7-yl ester]	100	100	50	70	50	100	90	100	20	100		
CCOC(=O)Oc1c(-c2c(C)cc(C)cc2C)c(=O)n2n1CCN(OC)CC2 [Compound P1.2, Carbonic acid ethyl ester 3-methoxy-9-oxo-8-(2,4,6-trimethyl-phenyl)-2,3,4,5-tetrahydro-1H,9H-pyrazolo[1,2-a][1,2,5]triazepin-7-yl ester]	100	100	30	80	80	50	80	100	40	90		
CCOC(=O)Oc1c(-c2c(C)cc(Cl)cc2C)c(=O)n2n1CCN(OC)CC2 [Compound P1.3]	60	80	20	70	0	80	0	60	20	10		
C#Cc1cc(C)cc(C)c1-c1c(OC(=O)OCC)n2n(c1=O)CCN(OC)CC2 [Compound P1.5]	100	100			90	100	40	90	20	30	20	80
CCOC(=O)Oc1c(-c2cc(-c3ccc(Cl)cc3)ccc2C)c(=O)n2n1CCN(OC)CC2 [Compound P1.7]	80	100			0	70	0	70	0	0	40	80
C#Cc1cc(C)c(-c2c(OC(=O)OCC)n3n(c2=O)CCN(OC)CC3)c(C)c1 [Compound P1.8]	70	80	20	60	20	80	0	40	20	0		
CCOC(=O)Oc1c(-c2c(C)cc(C)cc2OC)c(=O)n2n1CCN(OC)CC2 [Compound P1.9]	100	90	60	80	80	90	70	90	70	80		
CCOC(=O)Oc1c(-c2c(C)cc(Br)cc2C)c(=O)n2n1CCN(OC)CC2 [Compound P1.10]	60	70	30	60	40	80	70	70	60	70		
CCOC(=O)Oc1c(-c2c(Cl)cc(C)cc2Br)c(=O)n2n1CCN(OC)CC2 [Compound P1.11]	60	70	10	60	70	80	100	80	80	90		
CCOC(=O)Oc1c(-c2c(C)cc(Cl)cc2Br)c(=O)n2n1CCN(OC)CC2 [Compound P1.12]	50	70	30	60	10	80	90	70	0	100		
CON1CCN2C(=O)C(c3c(C)cc(C)cc3C)C(=O)N2CC1 [Compound P2.1, 3-Methoxy-8-(2,4,6-trimethyl-phenyl)-tetrahydro-pyrazolo[1,2-a][1,2,5]triazepine-7,9-dione]	100	90	30	60	90	90	100	90	100	100		
CON1CCN2C(=O)C(c3c(C)cc(Cl)cc3C)C(=O)N2CC1 [Compound P2.2, 8-(4-Chloro-2,6-dimethyl-phenyl)-3-methoxy-tetrahydro-pyrazolo[1,2-a][1,2,5]triazepine-7,9-dione]	60	50	20	30	50	70	80	70	70	80		
C#Cc1cc(C)cc(C)c1C1C(=O)N2CCN(OC)CCN2C1=O [Compound P2.5]	100	100	10	80	100	90	100	100	90	100		
